This is an account of results in ChEMBL document CHEMBL1138705, “Tetrahydroisoquinoline derivatives as melatonin MT2 receptor antagonists” (Bioorg Med Chem Lett, 2004).

Assay [1] has as its target T1, Melatonin receptor type 1B (Homo sapiens, UniProt P49286).
T1 sequence (P49286 whole entry): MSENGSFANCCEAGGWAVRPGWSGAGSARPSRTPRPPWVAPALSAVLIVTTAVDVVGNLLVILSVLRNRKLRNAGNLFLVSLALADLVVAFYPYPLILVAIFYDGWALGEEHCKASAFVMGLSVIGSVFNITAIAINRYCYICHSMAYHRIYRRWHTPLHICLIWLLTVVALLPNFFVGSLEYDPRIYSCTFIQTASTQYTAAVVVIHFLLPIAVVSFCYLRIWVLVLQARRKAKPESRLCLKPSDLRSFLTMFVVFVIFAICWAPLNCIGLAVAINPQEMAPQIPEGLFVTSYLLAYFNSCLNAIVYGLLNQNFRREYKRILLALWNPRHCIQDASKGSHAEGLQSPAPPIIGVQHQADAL
The assay can be described thus: Inhibitory concentration against Melatonin receptor type 1B.

Assay [2] deals with Melatonin receptor type 1A (Homo sapiens, UniProt P48039). Kind of assay: Inhibitory concentration against Melatonin receptor type 1A.
Melatonin receptor type 1A, sequence (P48039 whole entry): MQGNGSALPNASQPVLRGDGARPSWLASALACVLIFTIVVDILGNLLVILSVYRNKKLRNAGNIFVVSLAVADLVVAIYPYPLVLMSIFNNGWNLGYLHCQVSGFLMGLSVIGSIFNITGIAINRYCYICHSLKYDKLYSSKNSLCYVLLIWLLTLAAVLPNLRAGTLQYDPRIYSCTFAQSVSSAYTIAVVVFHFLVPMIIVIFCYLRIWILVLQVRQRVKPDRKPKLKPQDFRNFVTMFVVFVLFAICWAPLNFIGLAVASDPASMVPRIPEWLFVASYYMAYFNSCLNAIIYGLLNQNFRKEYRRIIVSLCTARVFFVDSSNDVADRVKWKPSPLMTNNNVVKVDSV

Each structure is given as a SMILES string. Some results are limits rather than exact numbers.

Usually IC50 stands for the concentration at which inhibition is half-maximal. The low end stands for inhibition by little substance, the high end for a need for much substance. In assay [1], `COc1cc2c(cc1OC)C(CC(c1ccccc1)c1ccccc1)N(C(=O)C1CCCCC1)CC2` (stereo unspecified) returned an IC50 of 370 nM.
As to `COc1cc2c(cc1OC)C(CCc1ccccc1)N(C(=O)c1ccc(C(F)(F)F)cc1)CC2` (stereo unspecified), inhibition in assay [1] was half-maximal at 1000 nM (IC50).
For `CC(=O)N1CCc2cc(F)ccc2C1CC(c1ccccc1)c1ccccc1` (stereo unspecified), the 50% inhibitory concentration (IC50) in assay [2] was over 1000 nM; in assay [1], 140 nM.
For `COc1cc2c(cc1OC)C(CC(c1ccccc1)c1ccccc1)N(C(N)=O)CC2` (stereo unspecified) the same measures were over 1000 nM and 30 nM.
As for `CCCC(=O)N1CCc2cc(OC)c(OC)cc2C1CC(c1ccccc1)c1ccccc1` (stereo unspecified), the IC50 in assay [2] is over 1000 nM; in assay [1], 79 nM.
For `COc1ccc2c(c1)C(CC(c1ccccc1)c1ccccc1)N(C(C)=O)CC2` (stereo unspecified) the same measures were 512 nM and 5.5 nM.
Regarding `CNC(=O)N1CCc2cc(OC)c(OC)cc2C1CC(c1ccccc1)c1ccccc1` (stereo unspecified), the values for the IC50 in assay [2] and in assay [1] were over 1000 nM and 60 nM, respectively.
Take `COc1cc2c(cc1OC)C(CCc1ccccc1)N(C(N)=O)CC2` (stereo unspecified): the values for the IC50 in assay [2] and in assay [1] were over 1000 nM and 160 nM, respectively.
For `CC(=O)N1CCc2ccccc2C1CC(c1ccccc1)c1ccccc1` (stereo unspecified) the same measures were over 1000 nM and over 1000 nM.
For `COc1cc2c(cc1Br)CCN(C(C)=O)C2CC(c1ccccc1)c1ccccc1` (stereo unspecified) the same measures were 230 nM and 24 nM.
Turning to `COc1cccc2c1CCN(C(C)=O)C2CC(c1ccccc1)c1ccccc1` (stereo unspecified), the IC50 in assay [2] and in assay [1] was over 1000 nM throughout.
Turning to `COc1cc2c(c(OC)c1)C(CC(c1ccccc1)c1ccccc1)N(C(C)=O)CC2` (stereo unspecified), the figures for the 50% inhibitory concentration (IC50) in assay [2] and in assay [1] were over 1000 nM and 45 nM, respectively.
For the compound `COc1cc2c(cc1OC)C(CCc1ccccc1)N(C(=O)C1CCCCC1)CC2` (stereo unspecified), the IC50 in assay [1] is 220 nM.
With `COc1cc2c(cc1OC)C(CC(c1ccccc1)c1ccccc1)N(C(C)=O)CC2` (stereo unspecified), the IC50 in assay [2] was over 1000 nM; in assay [1], 9.7 nM.
For the compound `CCCCCCC(=O)N1CCc2cc(OC)c(OC)cc2C1CC(c1ccccc1)c1ccccc1` (stereo unspecified), half-maximal inhibition in assay [1] (IC50) was put at 400 nM.
In the case of `COc1cc2c(cc1OC)C(CCc1ccccc1)N(C(C)=O)CC2` (stereo unspecified), the 50% inhibitory concentration (IC50) was over 1000 nM in assay [2] and 76 nM in assay [1].
As to `CCC(=O)N1CCc2cc(OC)c(OC)cc2C1CC(c1ccccc1)c1ccccc1` (stereo unspecified), the values for the IC50 in assay [2] and in assay [1] were over 1000 nM and 62 nM, respectively.
The compound `COc1cc2c(cc1OC)C(CC(c1ccccc1)c1ccccc1)N(C(=O)c1ccc(C(F)(F)F)cc1)CC2` (stereo unspecified) gave an IC50 in assay [1] of 810 nM.
Regarding `CC(=O)N1CCc2c(ccc3c2CCO3)C1CC(c1ccccc1)c1ccccc1` (stereo unspecified), the IC50 in assay [2] and in assay [1] was over 1000 nM in each case.
Regarding `COc1cc2c(cc1OC)C(CCc1ccccc1)N(C=O)CC2` (stereo unspecified), the 50% inhibitory concentration (IC50) was over 1000 nM in assay [2] and 83 nM in assay [1].
Take `COc1cc2c(cc1OC)C(CC(c1ccccc1)c1ccccc1)N(C(=O)c1ccccc1)CC2` (stereo unspecified): the IC50 in assay [2] is over 1000 nM; in assay [1], 120 nM.
`CCCCCC(=O)N1CCc2cc(OC)c(OC)cc2C1CC(c1ccccc1)c1ccccc1` (stereo unspecified) had an IC50 in assay [1] of 280 nM.
In the case of `COc1ccc2c(c1OC)CCN(C(C)=O)C2CC(c1ccccc1)c1ccccc1` (stereo unspecified), the half-inhibitory concentration (IC50) in assay [2] and in assay [1] was over 1000 nM in each case.
In the case of `COc1cc2c(cc1OC)C(CC(c1ccccc1)c1ccccc1)N(C=O)CC2` (stereo unspecified), the IC50 in assay [2] was found to be 621 nM; in assay [1], 9.9 nM.
In assay [1], `COc1cc2c(cc1OC)C(CCc1ccccc1)N(C(=O)C1CCC1)CC2` (stereo unspecified) came in with an IC50 of 24 nM.
For the compound `COc1cc2c(cc1OC)C(CC(c1ccccc1)c1ccccc1)N(C(=O)C(F)(F)F)CC2` (stereo unspecified), the IC50 in assay [2] is over 1000 nM; in assay [1] it was 100 nM.
The matching figures for `COC(=O)N1CCc2cc(OC)c(OC)cc2C1CC(c1ccccc1)c1ccccc1` (stereo unspecified): 673 nM and 22 nM.
As to `COc1ccc2c(c1)CCN(C(C)=O)C2CC(c1ccccc1)c1ccccc1` (stereo unspecified), the values for the IC50 in assay [2] and in assay [1] were over 1000 nM and 270 nM, respectively.
In turn, `COc1cc2c(cc1OC)C(CC(c1ccccc1)c1ccccc1)N(C(=O)C1CCC1)CC2` (stereo in doubt; 1j) returned an IC50 in assay [1] of 310 nM.
The same measure, in the same setting: to `COc1cc2c(cc1OC)C(CC(c1ccccc1)c1ccccc1)N(C(=O)C1CCC1)CC2` (stereo in doubt; 1m) belongs 240 nM.
